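GI50 is the concentration that inhibits growth by half. The concentration for full growth arrest is given as TGI.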
Tests used:
Test in all cases: DTP human tumour cell line panel, 384-well format
SR leukemia = tested on: SR leukemia
MOLT-4 leukemia = tested on: MOLT-4 leukemia
ACHN renal = tested on: ACHN renal
OVCAR-4 ovarian = tested on: OVCAR-4 ovarian
PC-3 prostate = tested on: PC-3 prostate
SK-OV-3 ovarian = tested on: SK-OV-3 ovarian
NCI-H460 NSCLC = tested on: NCI-H460 NSCLC
TK-10 renal = tested on: TK-10 renal
CCRF-CEM leukemia = tested on: CCRF-CEM leukemia
NCI-H226 lung = tested on: NCI-H226 lung
OVCAR-3 ovarian = tested on: OVCAR-3 ovarian
HL-60(TB) leukemia = tested on: HL-60(TB) leukemia
UO-31 renal = tested on: UO-31 renal
NCI-H23 lung = tested on: NCI-H23 lung
SF-539 CNS = tested on: SF-539 CNS
HS 578T breast = tested on: HS 578T breast
MDA-MB-231 breast = tested on: MDA-MB-231 breast
MALME-3M melanoma = tested on: MALME-3M melanoma
SF-268 CNS = tested on: SF-268 CNS
NCI-H522 lung = tested on: NCI-H522 lung
A549 NSCLC = tested on: A549 NSCLC
SK-MEL-5 melanoma = tested on: SK-MEL-5 melanoma
SW-620 colon = tested on: SW-620 colon
OVCAR-5 ovarian = tested on: OVCAR-5 ovarian
HCT-116 colon = tested on: HCT-116 colon
786-0 renal = tested on: 786-0 renal
NCI/ADR-RES ovarian = tested on: NCI/ADR-RES ovarian
SF-295 CNS = tested on: SF-295 CNS
U251 glioblastoma = tested on: U251 glioblastoma
RXF 393 renal = tested on: RXF 393 renal
COLO 205 colon = tested on: COLO 205 colon
SK-MEL-28 melanoma = tested on: SK-MEL-28 melanoma
MDA-MB-435 melanoma = tested on: MDA-MB-435 melanoma
SN12C renal = tested on: SN12C renal
K-562 leukemia = tested on: K-562 leukemia
HCC-2998 colon = tested on: HCC-2998 colon
IGROV1 ovarian = tested on: IGROV1 ovarian
HOP-92 NSCLC = tested on: HOP-92 NSCLC
BT-549 breast = tested on: BT-549 breast
SNB-75 CNS = tested on: SNB-75 CNS
KM12 colon = tested on: KM12 colon
UACC-257 melanoma = tested on: UACC-257 melanoma
HT29 colon = tested on: HT29 colon
HCT-15 colon = tested on: HCT-15 colon
CAKI-1 renal = tested on: CAKI-1 renal
M14 melanoma = tested on: M14 melanoma
DU-145 prostate = tested on: DU-145 prostate

SMILES: CC1(N)CCN(c2cnc(-c3cccc(Cl)c3Cl)c(N)n2)CC1
- GI50 (SR leukemia): 7.14 µM
- TGI (SR leukemia): 20.3 µM
- GI50 (MOLT-4 leukemia): 16.3 µM
- TGI (MOLT-4 leukemia): 30.7 µM
- GI50 (ACHN renal): 10.5 µM
- TGI (ACHN renal): 60.6 µM
- GI50 (OVCAR-4 ovarian): 14 µM
- TGI (OVCAR-4 ovarian): > 77.1 µM
- GI50 (PC-3 prostate): 21.4 µM
- TGI (PC-3 prostate): > 60.4 µM
- GI50 (SK-OV-3 ovarian): 10.2 µM
- TGI (SK-OV-3 ovarian): 24.9 µM
- GI50 (NCI-H460 NSCLC): 18.1 µM
- TGI (NCI-H460 NSCLC): 33.3 µM
- GI50 (TK-10 renal): 8.25 µM
- TGI (TK-10 renal): 25 µM
- GI50 (CCRF-CEM leukemia): 17 µM
- TGI (CCRF-CEM leukemia): 31.2 µM
- GI50 (NCI-H226 lung): 8.68 µM
- TGI (NCI-H226 lung): 46.6 µM
- GI50 (OVCAR-3 ovarian): 13.6 µM
- TGI (OVCAR-3 ovarian): 45.3 µM
- GI50 (HL-60(TB) leukemia): 23.4 µM
- TGI (HL-60(TB) leukemia): 38.1 µM
- GI50 (UO-31 renal): 14.2 µM
- TGI (UO-31 renal): > 100 µM
- GI50 (NCI-H23 lung): 3.66 µM
- TGI (NCI-H23 lung): 23.4 µM
- GI50 (SF-539 CNS): 13.9 µM
- TGI (SF-539 CNS): 27.7 µM
- GI50 (HS 578T breast): 13.4 µM
- TGI (HS 578T breast): 27.2 µM
- GI50 (MDA-MB-231 breast): 20.2 µM
- TGI (MDA-MB-231 breast): 49.6 µM
- GI50 (MALME-3M melanoma): 14.8 µM
- TGI (MALME-3M melanoma): 28 µM
- GI50 (SF-268 CNS): 18.6 µM
- TGI (SF-268 CNS): 53.4 µM
- GI50 (NCI-H522 lung): 2.64 µM
- TGI (NCI-H522 lung): 19.2 µM
- GI50 (A549 NSCLC): 30.1 µM
- TGI (A549 NSCLC): > 100 µM
- GI50 (SK-MEL-5 melanoma): 15.3 µM
- TGI (SK-MEL-5 melanoma): 28.7 µM
- GI50 (SW-620 colon): 7.58 µM
- TGI (SW-620 colon): > 50.4 µM
- GI50 (OVCAR-5 ovarian): 15.7 µM
- TGI (OVCAR-5 ovarian): 47.6 µM
- GI50 (HCT-116 colon): 17.2 µM
- TGI (HCT-116 colon): 32.1 µM
- GI50 ([…]-0 renal): 11.1 µM
- TGI (786-0 renal): 24 µM
- GI50 (NCI/ADR-RES ovarian): 17.9 µM
- TGI (NCI/ADR-RES ovarian): > 71.1 µM
- GI50 (SF-295 CNS): 21.5 µM
- TGI (SF-295 CNS): > 55.2 µM
- GI50 (U251 glioblastoma): 13.5 µM
- TGI (U251 glioblastoma): 27.4 µM
- GI50 (RXF 393 renal): 12.2 µM
- TGI (RXF 393 renal): 25.5 µM
- GI50 (COLO 205 colon): 21.3 µM
- TGI (COLO 205 colon): 41.5 µM
- GI50 (SK-MEL-28 melanoma): 16.7 µM
- TGI (SK-MEL-28 melanoma): 30.5 µM
- GI50 (MDA-MB-435 melanoma): 22.8 µM
- TGI (MDA-MB-435 melanoma): 48 µM
- GI50 (SN12C renal): 5.63 µM
- TGI (SN12C renal): 42.7 µM
- GI50 (K-562 leukemia): 0.783 µM
- TGI (K-562 leukemia): 14.4 µM
- GI50 (HCC-2998 colon): 16 µM
- TGI (HCC-2998 colon): 29.8 µM
- GI50 (IGROV1 ovarian): 8.4 µM
- TGI (IGROV1 ovarian): 27 µM
- GI50 (HOP-92 NSCLC): 1.02 µM
- TGI (HOP-92 NSCLC): 8.17 µM
- GI50 (BT-549 breast): 10.6 µM
- TGI (BT-549 breast): 24 µM
- GI50 (SNB-75 CNS): 12.3 µM
- TGI (SNB-75 CNS): 38.2 µM
- GI50 (KM12 colon): 6.2 µM
- TGI (KM12 colon): 20 µM
- GI50 (UACC-257 melanoma): 16.4 µM
- TGI (UACC-257 melanoma): 30.1 µM
- GI50 (HT29 colon): 18 µM
- TGI (HT29 colon): 34.7 µM
- GI50 (HCT-15 colon): 16.6 µM
- TGI (HCT-15 colon): 33.5 µM
- GI50 (CAKI-1 renal): 2.74 µM
- TGI (CAKI-1 renal): 16.9 µM
- GI50 (M14 melanoma): 17.6 µM
- TGI (M14 melanoma): 31.5 µM
- GI50 (DU-145 prostate): 47 µM
- TGI (DU-145 prostate): > 100 µM

SMILES: NS(=O)(=O)NCCNc1nonc1C(=Nc1ccc(F)c(Br)c1)NO
- GI50 (SR leukemia): 14.6 µM
- TGI (SR leukemia): 28.9 µM
- GI50 (MOLT-4 leukemia): 15.9 µM
- TGI (MOLT-4 leukemia): 29.8 µM
- GI50 (ACHN renal): 36.6 µM
- TGI (ACHN renal): > 100 µM
- GI50 (OVCAR-4 ovarian): 21.4 µM
- TGI (OVCAR-4 ovarian): 72.5 µM
- GI50 (PC-3 prostate): 6.11 µM
- TGI (PC-3 prostate): > 100 µM
- GI50 (SK-OV-3 ovarian): 10.9 µM
- TGI (SK-OV-3 ovarian): > 100 µM
- GI50 (NCI-H460 NSCLC): 27.4 µM
- TGI (NCI-H460 NSCLC): 73 µM
- GI50 (TK-10 renal): 28.8 µM
- TGI (TK-10 renal): > 89.2 µM
- GI50 (CCRF-CEM leukemia): 17.6 µM
- TGI (CCRF-CEM leukemia): 35.3 µM
- GI50 (NCI-H226 lung): 20.8 µM
- TGI (NCI-H226 lung): > 84.4 µM
- GI50 (OVCAR-3 ovarian): 24 µM
- TGI (OVCAR-3 ovarian): 76.8 µM
- GI50 (HL-60(TB) leukemia): 18.9 µM
- TGI (HL-60(TB) leukemia): 33.2 µM
- GI50 (UO-31 renal): 36 µM
- TGI (UO-31 renal): > 100 µM
- GI50 (NCI-H23 lung): 27.1 µM
- TGI (NCI-H23 lung): > 100 µM
- TGI (SF-539 CNS): > 100 µM
- GI50 (HS 578T breast): 25.3 µM
- TGI (HS 578T breast): 87.4 µM
- GI50 (MDA-MB-231 breast): 67.2 µM
- TGI (MDA-MB-231 breast): > 100 µM
- GI50 (MALME-3M melanoma): 30.5 µM
- TGI (MALME-3M melanoma): > 100 µM
- GI50 (SF-268 CNS): 33.9 µM
- TGI (SF-268 CNS): > 100 µM
- GI50 (NCI-H522 lung): 16.5 µM
- TGI (NCI-H522 lung): 47.7 µM
- GI50 (A549 NSCLC): 30.9 µM
- TGI (A549 NSCLC): > 100 µM
- GI50 (SK-MEL-5 melanoma): 35.9 µM
- TGI (SK-MEL-5 melanoma): > 92.6 µM
- GI50 (SW-620 colon): 42.2 µM
- TGI (SW-620 colon): > 100 µM
- GI50 (OVCAR-5 ovarian): 49.9 µM
- TGI (OVCAR-5 ovarian): > 100 µM
- GI50 (HCT-116 colon): 36.6 µM
- TGI (HCT-116 colon): > 100 µM
- GI50 ([…]-0 renal): 35.1 µM
- TGI (786-0 renal): > 100 µM
- GI50 (NCI/ADR-RES ovarian): > 100 µM
- TGI (NCI/ADR-RES ovarian): > 100 µM
- GI50 (SF-295 CNS): 11.7 µM
- TGI (SF-295 CNS): > 78.6 µM
- GI50 (U251 glioblastoma): 33.9 µM
- TGI (U251 glioblastoma): > 100 µM
- GI50 (RXF 393 renal): 4.11 µM
- TGI (RXF 393 renal): > 31.6 µM
- GI50 (COLO 205 colon): 21.8 µM
- TGI (COLO 205 colon): > 60.6 µM
- GI50 (SK-MEL-28 melanoma): 42.7 µM
- TGI (SK-MEL-28 melanoma): > 100 µM
- GI50 (MDA-MB-435 melanoma): 42.5 µM
- TGI (MDA-MB-435 melanoma): > 100 µM
- GI50 (SN12C renal): 35.2 µM
- TGI (SN12C renal): > 100 µM
- GI50 (K-562 leukemia): 27.8 µM
- TGI (K-562 leukemia): > 100 µM
- GI50 (HCC-2998 colon): 22.5 µM
- TGI (HCC-2998 colon): 51.7 µM
- GI50 (IGROV1 ovarian): 37.4 µM
- TGI (IGROV1 ovarian): > 100 µM
- GI50 (HOP-92 NSCLC): 29.6 µM
- TGI (HOP-92 NSCLC): > 89.5 µM
- GI50 (BT-549 breast): 5.97 µM
- TGI (BT-549 breast): > 56.3 µM
- GI50 (SNB-75 CNS): 21.4 µM
- TGI (SNB-75 CNS): 60.2 µM
- GI50 (KM12 colon): 8.9 µM
- TGI (KM12 colon): > 100 µM
- GI50 (UACC-257 melanoma): 28.7 µM
- TGI (UACC-257 melanoma): > 82.6 µM
- GI50 (HT29 colon): 41 µM
- TGI (HT29 colon): > 100 µM
- GI50 (HCT-15 colon): 51.6 µM
- TGI (HCT-15 colon): > 100 µM
- GI50 (CAKI-1 renal): 5.66 µM
- TGI (CAKI-1 renal): > 100 µM
- GI50 (M14 melanoma): 38.9 µM
- TGI (M14 melanoma): > 100 µM
- GI50 (DU-145 prostate): 48.2 µM
- TGI (DU-145 prostate): > 100 µM

From PubChem BioAssay (NCI)
